Reference: patent US11331364B2, “Use for JNK inhibitor molecules for treatment of various diseases” (Xigen Inflammation Ltd., priority 2014, dated 2022)
Square brackets hold non-standard residues; d marks the D form. Peptide text beside a SMILES is read from it.

Tested on: healthy male volunteers
Experiment: Phase I safety and tolerability of single and repeated instillations
Format: in vivo, human
Method: XG-104 was prepared as solution for instillations (in NaCl 0.9%). NaCl 0.9% served as placebo. A total of 49 subjects were included in this study, 28 in the “Single dose part” of this study and 21 in the “Multiple dose part” of this study. In the single dose part, the 28 subjects included were randomised between one of the 5 groups: 5 subjects in each of the 4 XG-104 groups (0.1 mg, 0.2 mg, 0.4 mg, 0.8 mg) (0.2, 0.4, 0.8 and 1.6%, respectively) and 8 subjects in the placebo group. In the multiple dose part, the 21 subjects included were randomised between one of the 4 groups: 5 subjects in each of the 3 XG-104 groups (0.1 mg, 0.2 mg, 0.4 mg) and 6 subjects in the placebo group. All subjects completed the study.
In the “Single dose part” of this study, single topical doses of 0.1, 0.2, 0.4 and 0.8 mg (0.2, 0.4, 0.8 and 1.6%, respectively) of XG-104 were tested. A single administration of XG-104 or placebo was performed on day 1 (D1) (one drop in the right eye). In the single dose part, subjects were hospitalized for approximately 36 h, namely from day −1 (D−1) evening to D2 morning. On day 3 an ambulatory visit was performed and the study ended with a visit at D4.
In the “Multiple dose part” of this study, three dose levels were tested. Doses were chosen according to the results of the single dose part as follows: first group: 0.1 mg (0.2%), second group: 0.2 mg (0.4%), and third group: 0.4 mg (0.8%). XG-104 or placebo was administered tid (“ter in die”—three times daily), each time 1 drop in the right eye, from D1 to D21. The administration took place at around 8 a.m., 12 a.m. and 8 p.m. In the multiple dose part, subjects were hospitalized from D−1 evening to D22 morning, whereby the end of the study was a visit at D36 (±2). For more flexibility, subjects had the possibility to perform some visits in ambulatory. In that case visits were the following: hospitalization for approximately 36 h, D−1 evening to D2 morning, ambulatory visits from D2 to D7, hospitalization for approximately 36 h, D7 evening to D9 morning, ambulatory visits from D9 to D14, hospitalization for approximately 36 h, D14 evening to D16 morning, ambulatory visits from D16 to D20, and hospitalization for approximately 36 h, D20 evening to D22 morning. The end of the study was a visit at D36 (±2), accordingly.
The safety parameters evaluated included: physical examination; vital signs (BP, PR); 12-lead ECG (electrocardiogram); fundus of the eye, intraocular pressure, slit lamp examination, best-corrected visual acuity, redness; Schirmer's tear test, TBUT (tear film break-up time); clinical laboratory tests (haematology, haemostasis, clinical chemistry and urinalysis); adverse events; and assessment of tolerability.

[1] = multiple dose 0.1 mg (0.2%) tid
[2] = multiple dose 0.2 mg (0.4%) tid
[3] = multiple dose 0.4 mg (0.8%) tid

CC(C)C[C@H](NC(=O)[C@H](CC(N)=O)NC(=O)[C@H](CC(C)C)NC(=O)[C@@H](NC(=O)[C@@H](C)NC(=O)[C@@H]1CCCN1C(=O)[C@H](CCCNC(=N)N)NC(=O)[C@@H](CCCCN)NC(=O)[C@@H]1CCCN1C(=O)[C@H](CCCNC(=N)N)NC(=O)[C@@H](CCCNC(=N)N)NC(=O)[C@H](CCCNC(=N)N)NC(=O)[C@H](CCCNC(=N)N)NC(=O)[C@H](CCC(N)=O)NC(=O)[C@@H](CCCNC(=N)N)NC(=O)[C@H](CCCNC(=N)N)NC(=O)[C@H](CCCCN)NC(=O)[C@H](CCCCN)NC(=O)[C@H](N)CCCNC(=N)N)[C@@H](C)O)C(=O)N[C@H](Cc1ccccc1)C(N)=O [SEQ ID NO: 172, rKKRrQRRrRPkRPaTLNLf] (H-[dR]KKR[dR]QRR[dR]RP[dK]RP[dA]TLNL[dF]-NH2; N-terminus assumed)
conjunctival hyperaemia, left eye, unlikely related (number) [1]: 2
conjunctival hyperaemia, right eye, unlikely related (number) [1]: 6
conjunctivas, right eye, probably related (number) [1]: 2
punctate keratitis, left eye, unlikely related (number) [1]: 2
punctate keratitis, left eye, unrelated (number) [1]: 1
punctate keratitis, right eye, unlikely related (number) [1]: 6
conjunctival hyperaemia, left eye, unlikely related (number) [2]: 3
conjunctival hyperaemia, right eye, unlikely related (number) [2]: 5
eyelid irritation, right eye, probably related (number) [2]: 1
punctate keratitis, left eye, unlikely related (number) [2]: 1
punctate keratitis, left eye, unrelated (number) [2]: 4
punctate keratitis, right eye, unlikely related (number) [2]: 6
punctate keratitis, right eye, unrelated (number) [2]: 1
conjunctival hyperaemia, left eye, unlikely related (number) [3]: 2
conjunctival hyperaemia, right eye, unlikely related (number) [3]: 10
conjunctivitis, right eye, unlikely related (number) [3]: 1
punctate keratitis, left eye, unlikely related (number) [3]: 2
punctate keratitis, right eye, unlikely related (number) [3]: 5
clinical examination, biological parameters, vital signs or ECG parameters (multiple dose part): No clinically relevant findings
intensity of TEAEs (multiple dose part): mild to moderate
serious adverse events (multiple dose part): No serious adverse events
TEAEs experienced after XG-104 administration (number) (multiple dose part, tid D1 to D21, 0.1-0.4 mg): 61
tolerability (repeated dose t.i.d. 0.1 mg, 0.2 mg, 0.4 mg): well tolerated
eye pruritus, right eye, unrelated (number) (single dose 0.1 mg (0.2%)): 1
punctate keratitis, right eye, unrelated (number) (single dose 0.1 mg (0.2%)): 2
tolerability (single dose 0.1 mg, 0.2 mg, 0.4 mg): well tolerated
conjunctival hyperaemia, right eye, unrelated (number) (single dose 0.2 mg (0.4%)): 1
punctate keratitis, right eye, unrelated (number) (single dose 0.2 mg (0.4%)): 2
punctate keratitis, right eye, unrelated (number) (single dose 0.4 mg (0.8%)): 2
TEAEs right eye probably related to study drug (number) (single dose 0.8 mg (1.6%)): 3
conjunctival hyperaemia, right eye, probably related (number) (single dose 0.8 mg (1.6%)): 1
conjunctivitis, right eye, probably related (number) (single dose 0.8 mg (1.6%)): 2
punctate keratitis, right eye, unrelated (number) (single dose 0.8 mg (1.6%)): 1
tolerability (single dose 0.8 mg (1.6%)): rather well tolerated
clinical examination, vital signs or ECG parameters (single dose part): No clinically relevant findings
intensity of TEAEs (single dose part): mild
serious adverse events (single dose part): No serious adverse events
TEAEs experienced after XG-104 administration (number) (single dose part, 0.1-0.8 mg, one drop right eye): 21
